Measurements: patent US10988505B2

Tests used:
[1] = molecular target: recombinant human matriptase (Homo sapiens (Human), UniProt Q9Y5Y6); experiment: Matriptase inhibition, Ki determination; assay type: biochemical; settings: purified recombinant human matriptase, Boc-Gln-Ala-Arg-AMC substrate, pH 7.4
cartilage damage = experiment: Osteoarthritis (OA) model, DMM surgery; assay type: in vivo, C57BL/6J mice; settings: DMM mice, 5 microlitre intraarticular injections of 10 mg/ml in saline on days 7 and 28, scored day 56
Method: The ability of the tested compound to protects against in vivo aggrecan loss in an osteoarthritis (OA) model was evaluated as described by Litherland G J. et al. Arthritis Rheumatol 2014; 66:2175-87.
OA was induced in C57BL/6J mice following destabilization of the medial meniscus (DMM) surgery. Mice received 5 microlitre intraarticular injections of either saline or Compound 1 (10 mg/ml in saline) on days 7 and 28 post surgery. At day 56 post-surgery, mice were killed, knee joints isolated and fixed overnight in 7% formaldehyde in PBS. Joints were decalcified in EDTA in PBS for 10 days and then wax embedded. Consecutive sections (6 μm) were stained with safranin 0 with hematoxylin counterstaining and then cartilage damage graded (by two blinded, independent observers) according to a published grading system [Litherland, 2014]: 0 (normal) to 6 (vertical clefts/erosion to the calcified cartilage extending to […] of the articular surface). Bars show the mean+/−SD of the highestscores in the medial tibial and femoral condyles for each joint. […] The results are depicted in FIG. 1.
**P<0.01 for the control and ***P<0.001 for Compound 1, by Kruskal-Wallis test with Dunn's multiple comparison test.

X31 H3N2 influenza virus = experiment: Influenza virus replication X31 in Calu-3 cells (viral plaque assay); assay type: cell-based; settings: Calu-3 human bronchial epithelial cells, 48 h, read-out: calu3_x31_H3N2 EC50 (avg)

recombinant human matriptase, sequence (Q9Y5Y6 615-855, other chains not shown): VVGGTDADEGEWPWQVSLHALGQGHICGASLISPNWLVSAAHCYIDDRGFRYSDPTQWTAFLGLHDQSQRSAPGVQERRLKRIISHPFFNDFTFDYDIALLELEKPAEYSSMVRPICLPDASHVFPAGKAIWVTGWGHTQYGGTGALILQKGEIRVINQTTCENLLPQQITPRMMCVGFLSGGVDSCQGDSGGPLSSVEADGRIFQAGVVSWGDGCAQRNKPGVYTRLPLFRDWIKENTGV

**Q.** With N=C(N)NCCCCC(=O)N[C@@H](CCC(N)=O)C(=O)N[C@@H](Cc1ccccc1)C(=O)N[C@@H](CCCNC(=N)N)C(=O)c1nc2ccccc2s1 [Example 1] as the molecule, how does the Ki [1] read?
**A.** 0.134 nM

**Q.** What about the cartilage damage score (cartilage damage) of the same molecule?
**A.** decreased the cartilage damage score

**Q.** And the EC50 (X31 H3N2 influenza virus)?
**A.** 20.9 nM

**Q.** Which EC50 (X31 H3N2 influenza virus) does the source give for C[C@H](NC(=O)[C@H](CCC(N)=O)NC(=O)[C@@H](N)CCCNC(=N)N)C(=O)N[C@@H](CCCNC(=N)N)C(=O)c1nc2ccccc2s1 [Comparative #1, reference compound] here?
**A.** 7700 nM

**Q.** With CC(=O)N[C@@H](CCC(N)=O)C(=O)N[C@@H](Cc1ccccc1)C(=O)N[C@@H](CCCNC(=N)N)C(=O)c1nc2ccccc2s1 [Example 3] as the molecule, how does the EC50 (X31 H3N2 influenza virus) read?
**A.** 34 nM

**Q.** Which Ki [1] does the source give for C[C@H](NC(=O)[C@@H](N)CCC(N)=O)C(=O)N[C@@H](CCCNC(=N)N)C(=O)c1nc2ccccc2s1 [Comparative #2, reference compound] here?
**A.** 0.0877 nM

**Q.** And the EC50 (X31 H3N2 influenza virus)?
**A.** 5690 nM
